The values below come from patent US20230047224A1 (Biocomposites Limited, priority 2021, published 2023).

The series is described as follows: In vitro elution of antibiotics from beads into PBS, quantified by LCMS. Format: physicochemical. Conditions: beads in 4 mL PBS at 37° C, 1.5 ml exchanged per time point. The procedure: Three grams of beads 2 were immersed in 4 mL of sterile phosphate-buffered saline (PBS) at 37° C. At each time point, 1.5 ml of the solution was sampled and replenished with fresh PBS. The samples were then syringe filtered using a 0.2 μm 13 mm PES syringe tilter into 2 mL amber glass vials.
Quantification of eluted antibiotics was measured using a single quadrupole mass spectrometer (MS) coupled to a 1260 infinity II series liquid chromatography stack (LCMS) (Agilent Technologies). Depending on the concentration, samples were analysed either neat or diluted to ensure values fell within the linear range of the standard curves. Concentrations were calculated from peak areas using standard curves developed from dilutions of antibiotic prepared to known concentrations. Separation was conducted with a Poroshell 120-SB-C18 column ([…]).
LCMS conditions were Buffer A was 99.9% H2O, 0.1% Heptafluorobutyric Acid and B was 99.9% Acetonitrile (CAN), 0.1% % Heptafluorobutyric Acid. The gradient was held with 30.0% B for 2 min before increasing linearly to 95.0% over 5 min. The 100% B was maintained for a further 1 min before rapid equilibration in 100% A. The flow rate was constant at 0.3 mL/min.
The gas temperature in the source was 325° C. with a flow rate of 9 L/min. The nebulizer pressure was 35 pounds per square inch and the capillary voltage […]. Fragmentor and collision energy voltages were optimized for each antibiotic.

Turning to tobramycin sulfate, the Elution concentration (Day 1) is 7046.208 µg/mL; the Elution concentration (Day 3) worked out at 4693.264 µg/mL; the Elution concentration (Day 4) is 3130.589 µg/mL; the Elution concentration (Day 7) was determined as 1972.743 µg/mL; the Elution concentration (Day 8) is 1058.751 µg/mL; the Elution concentration (Day 9) was determined as 574.1567 µg/mL. Further, the Elution concentration by setting is: (Day 10) 354.742 µg/mL; (Day 11) 216.352 µg/mL; (Day 14) 135.2563 µg/mL; (Day 15) 109.8367 µg/mL; (Day 17) 15.486 µg/mL; (Day 18) 9.978 µg/mL. Further, the Elution concentration is 7.125 µg/mL (Day 21); 5.194 µg/mL (Day 22); 3.866 µg/mL (Day 23); 3.277 µg/mL (Day 24); 2.913 µg/mL (Day 25); 2.833 µg/mL (Day 29). Moreover, the Elution concentration is, setting by setting: (Day 30) 2.598 µg/mL; (Day 31) 2.454 µg/mL.
